Patent publication US20110275559A1, “Long-Acting Y2 and/or Y4 Receptor Agonists” (Novo Nordisk A/S, priority 2008, published 2011)
Where two headings read alike, the source gives them in different places. Marks after values point to notes of the source that are not given here. *1 amine or outer side, *2 acyl side, *3 side chain or, on linkers, in order; H or OH if unused. Where a SMILES comes first, the peptide text is derived from it. Where no end group is shown, it is not given here. Side-chain parts run from the residue outwards. The star is where a group is joined. C20 diacid = O=C(O)CCCCCCCCCCCCCCCCCCC(=O)*; C18 diacid = O=C(O)CCCCCCCCCCCCCCCCC(=O)*; γGlu = O=C(O)[C@H](CCC(=O)[*:2])N[*:1]; Trx = NC[C@H]1CC[C@H](C(=O)O)CC1; AEEA = NCCOCCOCC(=O)O

Experiments:
lean C57BL/6 mice = experiment: Acute food intake in fasted lean mice (BioDAQ, fasting-induced refeeding); assay type: in vivo; conditions: for Mean cumulative food intake / Mean cumulative food intake [g]: Table 5, Study 6A
Experimental: Acute food intake in mice: Lean C57BL male mice are obtained from Charles River, Japan. They are maintained on a 12:12 light:dark cycle (lights off at 10:00 AM, lights on at 10:00 PM), fed pelleted D12450B rodent diet (Research Diets, Inc., New Brunswick, N.J.), and allowed water ad libitum. The mice arrive at 7-8 weeks of age and are acclimatized in the BioDAQ system a minimum of two weeks prior to study. On the day of study, mice are 9-12 weeks old. They are fasted overnight (20-24 h) with free access to water. The day of the study, mice are dosed with s.c. injection (dose volume=10 mL/kg), returned to their cage, and pre-weighed food is immediately placed in the cage. […] When the mice eat the weight reduction of the content of the food-tray is registered. Data is registered each time there is a change in the weight of the individual food-tray. Cumulative food intake is calculated by subtracting the food weight at each time point from the starting food weight.
Mice were administrated a single dose of the peptides (1 μmol/kg s.c.) 30 min before food return and cumulative food intake was measured over 24 h. […] One way ANOVA was carried for each time point out using the software Graph-Pad Prism, version 5.0. The statistical method used for the data in FIG. 1A was an unpaired t-test using the software Graph-Pad Prism, version 5.0. The statistical method used for the data in FIG. 1B and Table 4 was ANOVA, Dunnetts post hoc. Stars in FIGS. 1A and 1B indicate significance versus the vehicle group *) p<0.05, **) p<0.01, ***) p<0.001.
Fasted lean C57BL/6 mice were administrated a single subcutaneous injection of vehicle or peptide approximately 30 min before food return and the cumulative food intake was measured subsequently. One way ANOVA was carried out for each time point using the software Graph-Pad Prism, version 5.0.

in vivo = conditions: Göttingen, minipig
Method in brief: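 Catheterised mini-pigs received compound i.v. at 10 nmol/kg in pH 4.0 phosphate/NaCl/tween vehicle, or alternatively i.v. or s.c. at 1–30 nmol/kg in pH 8.0 K2HPO4/tween. Stabilised plasma was sampled up to 13 days and assayed by LC-MS (LLOQ 2 nM). Half-life came from non-compartmental analysis of individual animal profiles.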

[1] = Adrian T. E. et al, Gut (1978), 19, pp 907-909; cited from earlier work
Y2 receptor [2] = biological target: T1, Y2 receptor (Homo sapiens, UniProt P49146); experiment: Y2 receptor ACTOne based FLIPR assay (cAMP biosensor); assay type: cell-based
T1 construct: host or cells: ACTOne HEK-293 cells
T1 sequence (P49146 1-381): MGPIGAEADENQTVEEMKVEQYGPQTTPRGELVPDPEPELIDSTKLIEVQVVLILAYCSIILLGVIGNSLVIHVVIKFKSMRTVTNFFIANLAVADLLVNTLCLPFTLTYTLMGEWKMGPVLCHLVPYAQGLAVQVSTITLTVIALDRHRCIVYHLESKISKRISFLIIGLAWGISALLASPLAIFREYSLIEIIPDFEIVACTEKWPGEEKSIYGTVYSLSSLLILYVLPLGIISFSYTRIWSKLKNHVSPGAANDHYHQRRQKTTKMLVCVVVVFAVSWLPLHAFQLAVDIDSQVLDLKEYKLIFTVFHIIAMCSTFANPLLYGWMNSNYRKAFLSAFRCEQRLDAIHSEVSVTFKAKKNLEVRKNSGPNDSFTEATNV

Y4 receptor = biological target: T2, Y4 receptor (Homo sapiens, UniProt P50391); experiment: Y4 receptor ACTOne based FLIPR assay (cAMP biosensor); assay type: cell-based
T2 construct: host or cells: ACTOne HEK-293 cells

Y2 receptor [3] = biological target: T3, Y2 receptor (UniProt P49146 1-381, limits assumed); experiment: cell-based or functional assay
T3 sequence (looked up): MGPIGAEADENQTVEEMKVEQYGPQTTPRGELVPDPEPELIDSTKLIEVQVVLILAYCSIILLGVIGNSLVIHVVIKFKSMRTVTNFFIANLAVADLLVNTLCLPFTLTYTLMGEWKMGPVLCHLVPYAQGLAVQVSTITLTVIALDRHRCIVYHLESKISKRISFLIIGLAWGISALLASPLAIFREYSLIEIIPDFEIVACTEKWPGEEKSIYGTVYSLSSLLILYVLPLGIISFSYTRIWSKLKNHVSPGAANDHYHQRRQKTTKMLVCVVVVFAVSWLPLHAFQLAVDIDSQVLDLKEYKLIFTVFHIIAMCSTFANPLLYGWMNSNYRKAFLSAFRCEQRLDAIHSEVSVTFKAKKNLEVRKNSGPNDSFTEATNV

T2 sequence (P50391 whole entry): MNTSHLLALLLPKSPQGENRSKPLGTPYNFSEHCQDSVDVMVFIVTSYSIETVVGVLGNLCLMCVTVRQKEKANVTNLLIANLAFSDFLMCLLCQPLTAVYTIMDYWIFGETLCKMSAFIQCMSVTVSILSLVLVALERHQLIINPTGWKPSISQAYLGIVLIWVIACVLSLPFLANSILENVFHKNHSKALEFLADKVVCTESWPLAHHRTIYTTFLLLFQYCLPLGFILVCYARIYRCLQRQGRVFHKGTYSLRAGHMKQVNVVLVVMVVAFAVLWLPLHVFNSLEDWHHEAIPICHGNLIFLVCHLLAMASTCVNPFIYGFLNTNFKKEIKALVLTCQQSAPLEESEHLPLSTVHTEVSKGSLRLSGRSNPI

In the case of `CC[C@H](C)[C@H](NC(=O)[C@H](Cc1ccc(O)cc1)NC(=O)[C@H](CCCNC(=N)N)NC(=O)[C@H](CCCNC(=N)N)NC(=O)[C@H](CC(C)C)NC(=O)[C@H](CC(=O)O)NC(=O)[C@H](C)NC(=O)[C@H](C)NC(=O)[C@H](Cc1ccc(O)cc1)NC(=O)[C@H](CCC(N)=O)NC(=O)[C@H](C)NC(=O)[C@H](CCSC)NC(=O)[C@H](CCC(N)=O)NC(=O)[C@H](CCC(=O)O)NC(=O)[C@@H]1CCCN1C(=O)[C@@H](NC(=O)[C@H](C)NC(=O)[C@H](CC(N)=O)NC(=O)[C@H](CC(=O)O)NC(=O)CNC(=O)[C@@H]1CCCN1C(=O)[C@H](Cc1ccc(O)cc1)NC(=O)[C@@H](NC(=O)[C@@H]1CCCN1C(=O)[C@H](CCC(=O)O)NC(=O)[C@H](CC(C)C)NC(=O)[C@@H]1CCCN1C(=O)[C@H](C)N)C(C)C)[C@@H](C)O)C(=O)N[C@@H](CC(N)=O)C(=O)N[C@@H](CCSC)C(=O)N[C@@H](CC(C)C)C(=O)N[C@H](C(=O)N[C@@H](CCCNC(=N)N)C(=O)N1CCC[C@H]1C(=O)N[C@@H](CCCNC(=N)N)C(=O)N[C@@H](Cc1ccc(O)cc1)C(N)=O)[C@@H](C)O` [SEQ ID NO: 2, hPP(1-36)], the “time after administration at which the effect in reducing food intake has disappeared” value (lean C57BL/6 mice; Study 6A, fasted lean C57BL/6 mice, 1.0 μmol/kg s.c.) is reported as 12 h, the “Mean cumulative food intake” value (lean C57BL/6 mice; fasted lean C57BL/6 mice, single 1.0 μmol/kg s.c., 4 hours after injection, vehicle 1.51) is reported as 1.18 g and the “Mean cumulative food intake [g]” value (lean C57BL/6 mice; mice, 1.0 μmol/kg s.c., 6 hours after injection, vehicle 2.04) is reported as 1.51** g. The “Mean cumulative food intake [g]” value (lean C57BL/6 mice; mice, 1.0 μmol/kg s.c., 8 hours after injection, vehicle 2.61) was 1.98** g, the “Mean cumulative food intake” value (lean C57BL/6 mice; mice, 1.0 μmol/kg s.c., 12 hours after injection, vehicle 3.49) was 3.19 g and the “Mean cumulative food intake” value (lean C57BL/6 mice; mice, 1.0 μmol/kg s.c., 24 hours after injection, vehicle 4.35) was 3.87 g. The “Mean cumulative food intake” value (lean C57BL/6 mice; mice, 1.0 μmol/kg s.c., 36 hours after injection, vehicle 8.41) was 7.93 g, the “Mean cumulative food intake” value (lean C57BL/6 mice; mice, 1.0 μmol/kg s.c., 48 hours after injection, vehicle 8.87) was 8.56 g and the half-life (in vivo; iv, 15 nmol/kg) was 0.035 h. The half-life (in vivo; iv, 45 nmol/kg) was 0.031 h and the “half-life reported in man” value [1] was 7 min.

In the case of `CC[C@H](C)[C@H](NC(=O)[C@H](Cc1ccc(O)cc1)NC(=O)[C@H](CCCNC(=N)N)NC(=O)[C@H](CCCNC(=N)N)NC(=O)[C@H](CC(C)C)NC(=O)[C@H](CC(=O)O)NC(=O)[C@H](C)NC(=O)[C@H](C)NC(=O)[C@H](Cc1ccc(O)cc1)NC(=O)[C@H](CCC(N)=O)NC(=O)[C@H](C)NC(=O)[C@H](CC(C)C)NC(=O)[C@H](CCC(N)=O)NC(=O)[C@H](CCC(=O)O)NC(=O)[C@@H]1CCCN1C(=O)[C@@H](NC(=O)[C@H](C)NC(=O)[C@H](CC(N)=O)NC(=O)[C@H](CC(=O)O)NC(=O)CNC(=O)[C@@H]1CCCN1C(=O)[C@H](Cc1ccc(O)cc1)NC(=O)[C@@H](NC(=O)[C@@H]1CCCN1C(=O)[C@H](CCC(=O)O)NC(=O)[C@H](CC(C)C)NC(=O)[C@@H]1CCCN1)C(C)C)[C@@H](C)O)C(=O)N[C@@H](CC(N)=O)C(=O)N[C@@H](CC(C)C)C(=O)N[C@@H](CC(C)C)C(=O)N[C@H](C(=O)N[C@@H](CCCCNC(=O)COCCOCCNC(=O)COCCOCCNC(=O)CC[C@H](NC(=O)CCCCCCCCCCCCCCCCC(=O)O)C(=O)O)C(=O)N1CCC[C@H]1C(=O)N[C@@H](CCCNC(=N)N)C(=O)N[C@@H](Cc1ccc(O)cc1)C(N)=O)[C@@H](C)O` [SEQ ID NO: 41, N-epsilon33-[2-(2-{2-[2-(2-{2-[(S)-4-Carboxy-4-(17-carboxyheptadecanoylamino)butyrylamino]ethoxy}ethoxy)acetylamino]-ethoxy}ethoxy)acetyl][Leu17,Leu30,Lys33]hPP2-36] (H-PLEPVYPGDNATPEQLAQYAADLRRYINLLTK([AEEA-AEEA-γGlu-C18 diacid])PRY-NH2), the EC50 (Y2 receptor [2]; Table 2, PP analogues, ACTOne HEK-293 cells, read-out: Y2 cAMP EC50) is reported as greater than 1000 nM, the EC50 (Y4 receptor; Table 2, PP analogues, ACTOne HEK-293 cells, read-out: Y4 cAMP EC50) is reported as greater than 1000 nM and the half-life (in vivo; iv, […]) is reported as 105 h. The half-life (in vivo; male, sc, […]) was 93 h.

`CC[C@H](C)[C@H](NC(=O)[C@H](Cc1ccc(O)cc1)NC(=O)[C@H](CCCNC(=N)N)NC(=O)[C@H](CCCNC(=N)N)NC(=O)[C@H](CC(C)C)NC(=O)[C@H](CC(=O)O)NC(=O)[C@H](C)NC(=O)[C@H](C)NC(=O)[C@H](Cc1ccc(O)cc1)NC(=O)[C@H](CCC(N)=O)NC(=O)[C@H](C)NC(=O)[C@H](CC(C)C)NC(=O)[C@H](CCC(N)=O)NC(=O)[C@H](CCC(=O)O)NC(=O)[C@@H]1CCCN1C(=O)[C@@H](NC(=O)[C@H](C)NC(=O)[C@H](CC(N)=O)NC(=O)[C@H](CC(=O)O)NC(=O)CNC(=O)[C@@H]1CCCN1C(=O)[C@H](Cc1ccc(O)cc1)NC(=O)[C@@H](NC(=O)[C@@H]1CCCN1C(=O)[C@H](CCC(=O)O)NC(=O)[C@H](CC(C)C)NC(=O)[C@@H]1CCCN1C(=O)COCCOCCNC(=O)COCCOCCNC(=O)CC[C@H](NC(=O)[C@H]1CC[C@H](CNC(=O)CCCCCCCCCCCCCCCCCCC(=O)O)CC1)C(=O)O)C(C)C)[C@@H](C)O)C(=O)N[C@@H](CC(N)=O)C(=O)N[C@@H](CC(C)C)C(=O)N[C@@H](CC(C)C)C(=O)N[C@H](C(=O)N[C@@H](CCCNC(=N)N)C(=O)N1CCC[C@H]1C(=O)N[C@@H](CCCNC(=N)N)C(=O)N[C@@H](Cc1ccc(O)cc1)C(N)=O)[C@@H](C)O` [SEQ ID NO: 56, N-alfa-[2-(2-{2-[2-(2-{2-[(S)-4-Carboxy-4-({trans-4-[(19-carboxynonadecanoylamino)methyl]cyclohexanecarbonyl}amino)butyrylamino]-ethoxy}ethoxy)acetylamino]ethoxy}ethoxy)acetyl][Leu17,Leu30]hPP2-36] ({C20 diacid-Trx-γGlu-AEEA-AEEA}-PLEPVYPGDNATPEQLAQYAADLRRYINLLTRPRY-NH2; C-terminus assumed) showed an EC50 (Y2 receptor [2]) greater than 1000 nM, an EC50 (Y4 receptor) of 4 nM and a half-life (in vivo; in vivo, iv, 6 nmol/kg) of 22 h.

For {C20 diacid-Trx-γGlu-AEEA-AEEA}-NRYYASLRHYLNLVTRQRY (ends and bridges not checked), the “Y2 cAMP EC50” value (Y2 receptor [3]) was 97 nM.
